The structures appear in SMILES notation. Where two headings read alike, the source gives them in different places.

Holding throughout (format): cell-based
Assay [1] has as its target T1, human muscarinic M1 receptor (Homo sapiens, UniProt P11229).
T1 sequence (P11229 1-460): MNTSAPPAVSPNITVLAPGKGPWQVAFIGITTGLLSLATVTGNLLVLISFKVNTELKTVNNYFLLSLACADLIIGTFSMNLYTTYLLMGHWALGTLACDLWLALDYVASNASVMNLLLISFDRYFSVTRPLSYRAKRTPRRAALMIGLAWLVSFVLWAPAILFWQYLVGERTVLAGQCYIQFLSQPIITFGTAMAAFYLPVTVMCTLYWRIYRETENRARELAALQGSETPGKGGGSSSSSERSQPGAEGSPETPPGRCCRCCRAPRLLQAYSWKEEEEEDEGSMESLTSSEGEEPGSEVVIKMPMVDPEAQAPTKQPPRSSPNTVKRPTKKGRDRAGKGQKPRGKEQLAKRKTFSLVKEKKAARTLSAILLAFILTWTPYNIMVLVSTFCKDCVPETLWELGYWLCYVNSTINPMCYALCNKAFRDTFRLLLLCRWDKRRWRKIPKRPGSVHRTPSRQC
Briefly: Alphascreen Surefire phospho-ERK1/2 functional assay, M1. The note with it: phospho-ERK1/2; for EC50: read-out: pEC50 M1 (converted); for Emax: CHO, read-out: % Emax cf. ACh (M1), CHO cells stably expressing human M1; for Emax / % Emax cf. ACh (M1): relative to ACh. As to the method: (§1) ERK1/2 phosphorylation is a downstream consequence of both Gq/11 and Gi/o protein coupled receptor activation, making it highly suitable for the assessment of M1, M3 (Gq/11 coupled) and M2, M4 receptors (Gi/o coupled), rather than using different assay formats for different receptor subtypes. CHO cells stably expressing the human muscarinic M1, M2, M3 or M4 receptor were plated (25K/well) onto 96-well tissue culture plates in MEM-alpha+10% dialysed FBS. Once adhered, cells were serum-starved overnight. Agonist stimulation was performed by the addition of 5 μL agonist to the cells for 5 min (37° C.). Media was removed and 50 μL of lysis buffer added. After 15 min, a 4 μL sample was transferred to 384-well plate and 7 μL of detection mixture added.
(Alpha assays give light when donor and acceptor beads are brought close together.)

The target of assay [2] is T2, human muscarinic M3 receptor (Homo sapiens, UniProt P20309).
T2 construct: expressed in transfected cells
T2 sequence (P20309 whole entry): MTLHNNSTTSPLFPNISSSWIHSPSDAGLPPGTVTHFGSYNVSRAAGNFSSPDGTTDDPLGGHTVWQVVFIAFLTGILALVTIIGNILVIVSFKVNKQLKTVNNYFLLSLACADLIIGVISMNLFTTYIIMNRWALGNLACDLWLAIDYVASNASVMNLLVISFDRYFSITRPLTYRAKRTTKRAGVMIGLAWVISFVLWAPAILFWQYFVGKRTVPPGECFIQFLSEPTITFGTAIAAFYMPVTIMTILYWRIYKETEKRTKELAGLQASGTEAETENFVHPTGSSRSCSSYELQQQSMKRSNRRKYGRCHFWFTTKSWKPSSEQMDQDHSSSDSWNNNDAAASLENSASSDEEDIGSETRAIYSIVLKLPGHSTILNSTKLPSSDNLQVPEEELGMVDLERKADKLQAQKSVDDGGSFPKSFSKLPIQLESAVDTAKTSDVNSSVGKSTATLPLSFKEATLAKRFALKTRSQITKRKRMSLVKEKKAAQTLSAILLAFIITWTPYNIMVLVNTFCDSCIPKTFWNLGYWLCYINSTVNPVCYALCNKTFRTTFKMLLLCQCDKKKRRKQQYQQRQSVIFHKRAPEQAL
Put plainly: Alphascreen Surefire phospho-ERK1/2 functional assay, M3. The note with it: for EC50: read-out: pEC50 M3 (converted); for Emax: CHO. As to the method: as §1

The target of assay [3] is T3, human muscarinic M4 receptor (Homo sapiens, UniProt P08173).
T3 construct: expressed in transfected cells
T3 sequence (P08173 1-479): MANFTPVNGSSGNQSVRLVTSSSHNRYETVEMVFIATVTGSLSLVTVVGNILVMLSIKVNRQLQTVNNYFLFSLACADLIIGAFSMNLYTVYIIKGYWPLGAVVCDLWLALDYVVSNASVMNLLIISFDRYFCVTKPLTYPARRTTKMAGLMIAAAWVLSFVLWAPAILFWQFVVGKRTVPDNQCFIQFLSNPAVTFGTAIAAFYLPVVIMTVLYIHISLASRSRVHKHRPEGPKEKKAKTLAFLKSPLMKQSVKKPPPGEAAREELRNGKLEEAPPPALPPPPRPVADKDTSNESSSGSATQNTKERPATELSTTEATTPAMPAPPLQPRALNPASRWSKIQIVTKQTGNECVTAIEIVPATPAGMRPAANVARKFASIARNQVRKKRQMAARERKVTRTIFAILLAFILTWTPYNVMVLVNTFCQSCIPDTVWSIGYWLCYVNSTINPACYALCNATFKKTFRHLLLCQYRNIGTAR
Put plainly: Alphascreen Surefire phospho-ERK1/2 functional assay, M4. The settings on record: for EC50: read-out: pEC50 M4 (converted); for Emax: CHO.

Assay [4] has as its target T4, human muscarinic M2 receptor (Homo sapiens, UniProt P08172).
T4 sequence (P08172 1-466): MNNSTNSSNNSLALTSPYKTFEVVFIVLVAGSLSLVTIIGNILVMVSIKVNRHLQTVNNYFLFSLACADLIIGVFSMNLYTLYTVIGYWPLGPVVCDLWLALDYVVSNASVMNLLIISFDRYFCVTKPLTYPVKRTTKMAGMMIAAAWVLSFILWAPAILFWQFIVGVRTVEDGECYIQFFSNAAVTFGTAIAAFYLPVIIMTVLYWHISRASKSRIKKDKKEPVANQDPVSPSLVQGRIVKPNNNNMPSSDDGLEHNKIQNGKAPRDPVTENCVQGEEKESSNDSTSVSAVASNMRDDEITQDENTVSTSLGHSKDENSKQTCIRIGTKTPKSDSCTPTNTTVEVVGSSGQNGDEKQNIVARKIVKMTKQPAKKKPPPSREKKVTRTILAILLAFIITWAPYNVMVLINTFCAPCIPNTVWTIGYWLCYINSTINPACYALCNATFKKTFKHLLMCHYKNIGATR
Put plainly: Alphascreen Surefire phospho-ERK1/2 functional assay, M2. The note with it: for EC50: CHO cells stably expressing human M2, read-out: pEC50 M2 (converted); for Emax: CHO, read-out: % Emax cf. ACh (M2), CHO cells stably expressing human M2, relative to ACh. As to the method:
as §1

[5] abbreviates: CHO cells stably expressing human M1.
The mark [6] stands for this setting: CHO cells stably expressing human M3, phospho-ERK1/2.
[7] abbreviates: read-out: % Emax cf. ACh (M3), CHO cells stably expressing human M3, phospho-ERK1/2, relative to ACh.
Setting [8] is: CHO cells stably expressing human M4, phospho-ERK1/2.
Setting [9] is: read-out: % Emax cf. ACh (M4), CHO cells stably expressing human M4, phospho-ERK1/2, relative to ACh.
[10] abbreviates: CHO cells stably expressing human M4, phospho-ERK1/2, relative to ACh.

For `CCOC(=O)N1CCC2(CC(N3CCC(N(CC)Cc4cnco4)CC3)C2)C1` (single isomer, unassigned) [2-60 Isomer 2], the EC50 was greater than 20000 nM in assay [1] (setting [5]), greater than 20000 nM in assay [2] (setting [6]), 63.1 nM in assay [3] (setting [8]) and greater than 20000 nM in assay [4]. Besides, the Emax in assay [1] was determined as 62%; in assay [2] (setting [7]) it was 56%; in assay [3] (setting [9]), 111%; in assay [4] it was 20%.

For `CCOC(=O)N1CCC2(CC(N3CCC(OC(C)c4ccccc4)CC3)C2)C1` (single isomer, unassigned) [2-66 Isomer 2], the EC50 in assay [1] (setting [5]) was greater than 20000 nM; in assay [2] (setting [6]), greater than 20000 nM; in assay [3] (setting [8]), 39.8 nM; in assay [4], greater than 20000 nM. Moreover, the Emax in assay [1] turned out to be 59%; in assay [2] (setting [7]), 8%; in assay [3] (setting [9]), 76%; in assay [4] it was 17%.

In the case of `CCOC(=O)N1CCC2(CC(N3CCC(N(C(=O)OC)C4COC4)CC3)C2)C1` (single isomer, unassigned) [2-47 Isomer 2], the EC50 is 398 nM in assay [1] (setting [5]), 1260 nM in assay [2] (setting [6]), 63.1 nM in assay [3] (setting [8]) and 501 nM in assay [4]. The Emax in assay [1] turned out to be 113%; in assay [2] (setting [7]) it was 63%; in assay [3] (setting [9]), 90%; in assay [4], 29%.

Take `CCOC(=O)N1CCC2(CC(N3CCC(N(CCOC)C4CC4)CC3)C2)C1` (single isomer, unassigned) [2-8 Isomer 2]: the EC50 in assay [1] (setting [5]) was greater than 20000 nM; in assay [2] (setting [6]), greater than 20000 nM; in assay [3] (setting [8]), 20 nM; in assay [4], greater than 20000 nM. The Emax turned out to be 4% in assay [1], 6% in assay [2] (setting [7]), 57% in assay [3] (setting [9]) and 6% in assay [4].

Take `CCOC(=O)N1CCC2(CC(N3CCC(N(CC)C(C)=O)CC3)C2)C1` (single isomer, unassigned) [2-2 Isomer 2]: in assay [1] (setting [5]), the “pEC50 M1” value worked out at 6.2 and the “% Emax cf. ACh (M1)” value was 91%. In assay [2] (setting [6]), the “pEC50 M3” value is given as less than 4.7. Moreover, the “% Emax cf. ACh (M3)” value in assay [2] (CHO cells stably expressing human M3, phospho-ERK1/2, relative to ACh) worked out at 9%. Further, in assay [3] (setting [8]), the “pEC50 M4” value worked out at 7.4. The “% Emax cf. ACh (M4)” value in assay [3] (setting [10]) is reported as 99%. For the same molecule, in assay [4] (CHO cells stably expressing human M2), the “pEC50 M2” value is reported as less than 4.7. Further, the “% Emax cf. ACh (M2)” value in assay [4] (CHO cells stably expressing human M2, relative to ACh) came out at 18%.

For the molecule `CCOC(=O)N1CCC2(CC(N3CCC(N(CC(F)(F)F)C4COC4)CC3)C2)C1` (single isomer, unassigned) [2-54 Isomer 2], the EC50 in assay [1] (setting [5]) is 251 nM; in assay [2] (setting [6]) it was greater than 20000 nM; in assay [3] (setting [8]), 31.6 nM; in assay [4], greater than 20000 nM. In addition, the Emax came out at 106% in assay [1], 20% in assay [2] (setting [7]), 98% in assay [3] (setting [9]) and 28% in assay [4].

As for `CCOC(=O)N1CCC2(CC(N3CCC(N(C(C)=O)C4CC4)CC3)C2)C1` (single isomer, unassigned) [2-3 Isomer 2], the EC50 in assay [1] (setting [5]) is 200 nM; in assay [2] (setting [6]), greater than 20000 nM; in assay [3] (setting [8]) it was 31.6 nM; in assay [4] it was greater than 20000 nM. Moreover, the “% Emax cf. ACh (M1)” value in assay [1] (setting [5]) came to 93%. In addition, the Emax in assay [2] (setting [7]) was found to be 6%; in assay [4], 13%. Further, the “% Emax cf. ACh (M4)” value in assay [3] (setting [10]) is reported as 93%.

In the case of `CCN(C(C)=O)C1CCN(C2CCC3(C2)CN(C(=O)OC)C3)CC1` (single isomer, unassigned) [3-2 Isomer 2], the EC50 in assay [1] (setting [5]) was 316 nM; in assay [2] (setting [6]) it was greater than 20000 nM; in assay [3] (setting [8]), 31.6 nM; in assay [4], greater than 20000 nM. Also, the Emax amounted to 42% in assay [1], 37% in assay [2] (setting [7]), 94% in assay [3] (setting [9]) and 29% in assay [4].

Regarding `CCOC(=O)N1CCC2(CC(N3CCC(N(CCO)CC(F)(F)F)CC3)C2)C1` (single isomer, unassigned) [2-51 Isomer 2], the EC50 in assay [1] (setting [5]) is 316 nM; in assay [2] (setting [6]), greater than 20000 nM; in assay [3] (setting [8]), 20 nM; in assay [4], greater than 20000 nM. In addition, the maximum response (Emax) in assay [1] was determined as 84%; in assay [2] (setting [7]), 22%; in assay [3] (setting [9]) it was 89%; in assay [4], 18%.

With `CCOC(=O)N1CC2(CC(N3CCC(N(CC)C(C)=O)CC3)C2)C1` [Example 1-2, Ethyl 6-{4-[acetyl(ethyl)amino]piperidin-1-yl}-2-azaspiro[3.3]heptane-2-carboxylate], the EC50 in assay [1] (setting [5]) was 6310 nM; in assay [3] (setting [8]) it was 251 nM. For the same molecule, the Emax is 59% in assay [1] and 103% in assay [3] (setting [9]).

`CCOC(=O)N1CCC2(CC(N3CCC(N(Cc4ncco4)C(C)=O)CC3)C2)C1` (single isomer, unassigned) [2-37 Isomer 2]: the figures for the EC50 in assay [1] (setting [5]) and in assay [3] (setting [8]) were 1260 nM and 631 nM, respectively. Also, the values for the Emax in assay [1] and in assay [3] (setting [9]) were 26% and 55%, respectively.

Turning to `COC(=O)N1CCC2(CC(N3CCC(N(C(C)=O)C4CCC4)CC3)C2)C1` (single isomer, unassigned) [2-15 Isomer 2], the values for the EC50 in assay [1] (setting [5]) and in assay [3] (setting [8]) were 501 nM and 200 nM, respectively. The Emax in assay [1] was 117%; in assay [3] (setting [9]) it was 95%.

As to `CCOC(=O)N1CCC2(CC(N3CCC(C(C)n4cccn4)CC3)C2)C1` (single isomer, unassigned) [2-65 Isomer 1a], the EC50 was 7940 nM in assay [1] (setting [5]) and greater than 20000 nM in assay [3] (setting [8]). In addition, the Emax in assay [1] was determined as 45%. Besides, the “% Emax cf. ACh (M4)” value in assay [3] (setting [10]) is 14%.

For the molecule `CCN(C(C)=O)C1CCN(C2CC3(CCN(C(=O)OC)C3)C2)CC1` (single isomer, unassigned) [2-17 Isomer 2], in assay [1] (setting [5]), the EC50 is 1260 nM and the “% Emax cf. ACh (M1)” value is 80%. For the same molecule, the EC50 in assay [3] (setting [8]) is 200 nM. The “% Emax cf. ACh (M4)” value in assay [3] (setting [10]) was found to be 92%.

With `CCOC(=O)N1CCC2(CC(N3CCC(N(CC4(O)CCC4)C(C)=O)CC3)C2)C1` (single isomer, unassigned) [2-31 Isomer 2], the EC50 is 398 nM in assay [1] (setting [5]) and 39.8 nM in assay [3] (setting [8]). The “% Emax cf. ACh (M1)” value in assay [1] (setting [5]) is 78%. In addition, in assay [3] (setting [10]), the “% Emax cf. ACh (M4)” value was 95%.

Turning to `CC(=O)OCC[N+](C)(C)C` [ACh, acetylcholine, reference compound], the values for the Emax in assay [2] (read-out: % Emax cf. ACh (M3)) and in assay [3] (read-out: % Emax cf. ACh (M4)) were 115% and 110%, respectively.

What is called Emax is the maximal effect, on the per cent scale that the assay sets.

Source of the values: patent US10167272B2, “Muscarinic agonists” (Heptares Therapeutics Limited, priority 2015, dated 2019).
